Source: patent publication US8759324B2 (priority 2006, dated 2014)
Read-outs that look alike come from different tables or passages of the source.

Experiments:
[1] = in vivo, iv; cited from earlier work
[2] = when carboxylates are protonated; cited from earlier work
[3] = cited from earlier work
[4] = Precipitation of anionic porphyrins at acidic pH; type: physicochemical; details: pH 5.5, ~50% of carboxylate groups protonated
[5] = Electrochemistry: metal-centered redox potential (voltammetry); type: physicochemical; details: for E1/2 (H2O)M^IIIP/(H2O)M^IIP: 0.1M NaCl and 0.01 M HCl, errors ±3 mV
Method: The electrochemistry was done as previously described on CH Instruments 600 Voltammetric Analyzer. The metal-centered redox potentials of aquametalloporhyrins were measured in 0.1 M NaCl and 0.01 M HCl. […] Thus, their voltammograms were obtained in 0.1 M NaCl, 0.1 M 1-methylimidazole, 0.05 M phosphate buffer, pH 7.8. Scan rates were 0.1 V/s. The potentials were standardized against MnTE-2-PyP^5+ and are given in Table 1, in mV versus normal hydrogen electrode, NHE [42].

[6] = Stability of metalloporphyrins to oxidative degradation (bleaching), spectrophotometric; details: for remaining fraction of metalloporphyrin: after 6 hours, in the presence of cyclophosphamide, pH 7.4, 10 μM porphyrin; for remaining fraction of metalloporphyrin / stability to oxidative degradation / bleaching (in words): aerobic; for stability to oxidative degradation / bleaching (in words): pH 7.4, ascorbic acid
[7] = cited from earlier work; remark: listed apart in the source
[8] = pH 7.4; for remaining fraction of metalloporphyrin: buffer, 6 h
[9] = 0.1 M NaCl, 0.1 M 1-methylimidazole, 0.05 M phosphate buffer, pH 7.8, scan rate 0.1 V/s
[10] = footnote b: ref 42, pH 7.8, 0.05 M phosphate buffer, 0.1M NaCl, 0.5 mM porphyrin
[11] = footnote a: estimated from existing potentials of difluoro- and dichloro analogues [42] and those obtained herein

Compound: O=P1(N(CCCl)CCCl)NCCCO1 (stereo not drawn) [CP, cyclophosphamide]
- CP hydroxylated to 4-OHCP in plasma [1]: around 2.4%
- peak CP levels in plasma [1]: 27.58 μg/mL μM

Compound: C=CC1=C(C)c2cc3[n-]c(cc4[n-]c(cc5nc(cc1n2)C(C)=C5C=C)c(C)c4CCC(=O)O)c(CCC(=O)O)c3C.[Cl-].[Fe+3] [FePP-IX^−, Fe(III) protoporphyrin IX]
- precipitation under acidic conditions [2]: precipitate under acidic conditions
- pKa of carboxylate groups [3]: ~5
- precipitation at pH 5.5 [4]: precipitate out of the solutions
- E1/2 (1-MeIm)2M^IIIP/(1-MeIm)2M^IIP [5, 9]: 112 mV vs NHE
- remaining fraction of metalloporphyrin ([6]; 2 mM ascorbic acid): 71%
- stability to oxidative degradation / bleaching (in words) [6]: very resistant to bleaching

Compound: C[n+]1ccccc1-c1c2nc(c(-c3cccc[n+]3C)c3ccc([n-]3)c(-c3cccc[n+]3C)c3nc(c(-c4cccc[n+]4C)c4ccc1[n-]4)C=C3)C=C2.[Fe+3] [FeTM-2-PyP^5+, Fe(III) tetrakis(N-methylpyridinium-2-yl)porphyrin]
- E1/2 (1-MeIm)2M^IIIP/(1-MeIm)2M^IIP [7, 10]: +432^b mV vs NHE
- E1/2 (H2O)M^IIIP/(H2O)M^IIP [7, 10]: +355^b mV vs NHE
- E1/2 (OH)M^IIIP/(H2O)M^IIP [7, 10]: +212^b mV vs NHE
- change of absorbance at 417.5 nm (porphyrin degradation) ([6]; 9 μM porphyrin, 2 mM ascorbic acid, +/−50 μM H2O2, +/−50 mM mannitol, PBS pH 7.4, 25° C., data not shown): decreased slowly
- remaining fraction of metalloporphyrin ([6]; 2 mM ascorbic acid): 41%

Compound: C[n+]1ccccc1-c1c2nc(c(-c3cccc[n+]3C)c3ccc([n-]3)c(-c3cccc[n+]3C)c3nc(c(-c4cccc[n+]4C)c4ccc1[n-]4)C=C3)C=C2.[Mn+3] [MnTM-2-PyP^5+, Mn(III) tetrakis(N-methylpyridinium-2-yl)porphyrin]
- E1/2 (OH)M^IIIP/(H2O)M^IIP [7, 10]: +128^b mV vs NHE
- remaining fraction of metalloporphyrin ([6]; 2 mM ascorbic acid): 91%

Compound: C[n+]1cccc(-c2c3nc(c(-c4ccc[n+](C)c4)c4ccc([n-]4)c(-c4ccc[n+](C)c4)c4nc(c(-c5ccc[n+](C)c5)c5ccc2[n-]5)C=C4)C=C3)c1.[Mn+3] [MnTM-3-PyP^5+, Mn(III) tetrakis(N-methylpyridinium-3-yl)porphyrin]
- E1/2 (OH)M^IIIP/(H2O)M^IIP ([7]; footnote c: ref 62, pH 11 where only 33% of (OH)MnTM-3-PyP^4+ exists): +42^c mV vs NHE
- remaining fraction of metalloporphyrin ([6]; 2 mM ascorbic acid): 94%

Compound: Fe(III) meso tetrakis(2,6-dichloro-3-sulfonatophenyl)porphyrin [FeT(2,6-Cl2-3-SO3P)P^3−]
- E1/2 (1-MeIm)2M^IIIP/(1-MeIm)2M^IIP [7, 10]: +134^b mV vs NHE
- E1/2 (OH)M^IIIP/(H2O)M^IIP [7, 10]: +94^b mV vs NHE
- remaining fraction of metalloporphyrin [8]: 23%
- stability to oxidative degradation / bleaching (in words) [8]: least stable
- E1/2 (H2O)M^IIIP/(H2O)M^IIP ([5]; scan rate 0.1 V/s): +144^ mV vs NHE

Compound: Fe(III) meso tetrakis(2,6-difluoro-3-sulfonatophenyl)porphyrin [FeT(2,6-F2-3-SO3P)P^3−]
- 4-OHCP produced (pH 5.5): 46.11 µM
- cyclophosphamide hydroxylated relative to 10 μM porphyrin (pH 5.5): ~5 fold
- 4-OHCP formed (pH 7.4): 15.62 µM
- remaining fraction of metalloporphyrin [8]: 19%
- stability to oxidative degradation / bleaching (in words) [8]: least stable
- E1/2 (H2O)M^IIIP/(H2O)M^IIP ([5]; scan rate 0.1 V/s): +124^ mV vs NHE
- E1/2 (1-MeIm)2M^IIIP/(1-MeIm)2M^IIP [5, 11]: +114^a mV vs NHE
- E1/2 (OH)M^IIIP/(H2O)M^IIP [5, 11]: +74^a mV vs NHE

Compound: Fe(III) meso tetrakis(4-carboxylatophenyl)porphyrin [FeTBAP^3−]
- precipitation under acidic conditions [2]: precipitate under acidic conditions
- pKa of carboxylate groups [3]: ~5
- precipitation at pH 5.5 [4]: precipitate out of the solutions
- E1/2 (1-MeIm)2M^IIIP/(1-MeIm)2M^IIP [5, 9]: +22 ^ mV vs NHE
- remaining fraction of metalloporphyrin ([6]; 2 mM ascorbic acid): 24%
- stability to oxidative degradation / bleaching (in words) [6]: more prone to destruction
